Assay results as given in patent US6713504B2, “Antifungal molecule 2-(3,4-dimethyl-2,5-dihydro-1H-pyrrol-2-yl)-1-methylethyl pentanoate” (Council of Scientific & Industrial Research, priority 2002, dated 2004).

Experiments:
A. fumigatus infection [1] = test: In vivo efficacy (survival) in mice model of aspergillosis; design: species or system Balb/C mice; details: 7 doses
Experimental: The mice model of aspergillosis described by Dixon et al (1989), was used to study the effects of compound on in vivo infection of A. fumigatus.
(§1) The animals were housed in the micro-barrier cages on sterile bedding and fed ad libitum water and food. The mice were divided into 6 groups and each group contained 8-10 animals. The mice were infected experimentally with A. fumigatus. Three days prior to infection with conidia, mice were injected subcutaneously with 3 doses (250.0 mg/kg/day) of cortisone acetate in 400.0 μl of PBS. On the infection day, each mouse received 2×10^7 conidia by nasal instillation of a single droplet of conidial suspension.
A. fumigatus (190/96) isolate was grown on Sabouraud dextrose agar plates at 37° C. for 4 days. The conidia were collected from the culture plates using PBS (pH 7.2) containing 0.05% Tween 80 (Sigma Chemicals) and the suspension was filtered through sterile glass wool. The conidia were pelleted by centrifugation at 2000 rpm and re-suspended in PBS, pH 7.2. The number of conidia was counted and adjusted to 1×10^8 conidia/ml. The viability of the conidia was determined by plating the dilutions of suspensions on Sabouraud dextrose agar.
The purified compound (metelatropinyl ester) isolated from the D. metel was administered orally in the concentration ranging from 0.0, 25.0 50.0 100.0 200.0 and 400.0 mg/kg body weight to the mice infected experimentally with A. fumigatus.
The dosing of the animals (cortisone treated and challenged) with compound in 6 different groups was initiated within 30 min after challenge with A. fumigatus conidia.
Group I: The mice were treated orally with 7 doses of 25.0 mg/kg/day of the compound.
Group II: The animals infected with A. fumigatus conidia were given 50.0 mg/kg/day of the compound for 7 days orally.
Group III: The animals in this group were given 7 oral doses of 100.0 mg/kg/day of the compound.
Group IV: In this group of animals, 7 oral doses of the compound (200.0 mg/kg/day) were given.
Group V: The animals of this group were treated with 7 doses of 400.0 mg/kg/day orally over a period of 7 days.
Group VI: The animals of this group acted as control and were treated orally with 7 doses of 400 μl PBS containing solvent.
The animals were housed in properly labeled cages and kept under close watch for weight loss and the mortality. The survival rate over a period of 10 days was calculated and the fungal burden in survivors determined (Clemons and Stevens, 1994).
The Balb/C mice of 6-8 weak of age of either sex, weighing 15-20 g, were housed in micro-barrier cages on sterile bedding and fed ad libitum water and food. The animals were divided into 6 groups and each group contained 8-10 mice.

A. niger = test: Disc diffusion assay; format: cell-based
Experimental: (§2) Pathogenic strains of fungi were obtained from the Mycology Department of Vallabhbhai Patel Chest Institute, Delhi. All the strains were grown on Sabouraud dextrose agar at 37° C. The conidia form these cultures were harvested and suspended in Sabouraud maltose broth. The number of conidia was counted using haemocytometer and their number in the suspension was adjusted to as per need of the experiment.
(§3) The disc diffusion test was performed as per described in the section of details of invention. Amphotericin B 1.25 μg/disc was used in assay as positive control standard drug. Additional discs impregnated with equivalent amount of solvent were also used in the assay as negative controls (FIG. 5).

A. flavus = test: Disc diffusion assay; format: cell-based; details: concentration developing zone of inhibition of 6.0-mm diameter
Experimental: as §2, §3

A. fumigatus infection [2] = test: Quantification of colony forming units in organs of infected mice; format: in vivo, Balb/C mice
Source text: In vivo efficacy of the compound against A. fumigatus infection was studied in the Balb/C mice of 6-8 weak of age of either sex, weighing 15-20 g each. The mice model of aspergillosis described by Dixon et al (1989), was used to study the effects of compound on in vivo infection of A. fumigatus.
as §1, with “suspension. The animals of this model developed invasive aspergillosis and all the infected animals died within 4-6 days.” for “suspension.”
The mice were kept under constant watch and those getting moribund, dying or survived up to 10 days were sacrificed. The autopsy was performed on the mice who had died to remove their organs for quantification of colony forming units (CFU). The lungs, livers and kidneys of the mice were removed aseptically, placed in sterile PBS (pH 7.2) and homogenized with teflon pestle mortar. The CFU in the animals were determined by plating 10 fold dilutions of organ homogenates on Sabouraud dextrose agar containing 0.05% triton X-100. The triton X-100 limited the colony size and thus greatly facilitated colony counting (Frosco, 1992). After an incubation for 48 h at 37° C., colonies were counted and results were expressed as CFU per organ.
The fungal burden in the organs of the animals, which died or became moribund during study or those survived up to 10th day, was determined. The lungs, livers and kidneys of the animals were isolated, homogenized and the homogenate was used to culture the pathogen on Sabouraud dextrose agar plates. The colonies of the fungus were counted and expressed as colony forming units (CFU)/organ.

CCCCC(=O)OC(C)CC1NCC(C)=C1C (stereo not drawn) [PC-1, 2-(3,4-dimethyl-2,5-dihydro-1H-pyrrol-2-yl)-1-methylethyl pentanoate]
survived up to 10th day (A. fumigatus infection [1]; 25.0 mg/kg body weight oral, 1 out of 10): 10% | survived up to 10th day (A. fumigatus infection [1]; 50.0 mg/kg body weight oral, 1 out of 8): 12.5% | survived up to 10th day (A. fumigatus infection [1]; 100.0 mg/kg body weight oral, 3 out of 9): 33.3% | survived up to 10th day (A. fumigatus infection [1]; 200.0 mg/kg body weight oral, 4 out of 9): 44.4% | survived up to 10th day (A. fumigatus infection [1]; 400.0 mg/kg body weight oral, 8 out of 10): 80% | zone of inhibition at 20 µg/disc (A. niger; Aspergillus niger, 20.0 μg/disc, 48 hrs, read-out: Diameter of zone of inhibition): 9.4 mm | MIC by disc diffusion assay (A. niger; concentration developing zone of inhibition of 6.0-mm diameter): 5 μg/disc | MIC by disc diffusion assay (A. flavus): 5 μg/disc | effect on colony counts in lung as compared to controls (A. fumigatus infection [2]; 400 mg/kg body weight, p<0.001): reduced the colony counts significantly | effect on number of CFUs in kidneys (A. fumigatus infection [2]; 100.0 to 400.0 mg/kg body weight): significant reduction | effect on the CFUs in the lung tissue (A. fumigatus infection [2]; doses of 25.0 and 50.0 mg/kg body weight): did not have any effect | effect on CFUs in liver (A. fumigatus infection [2]; liver): very less effect
